Drawing on patent US9944624B2, “Substituted amino triazoles useful as human chitinase inhibitors” (OncoArendi Therapeutics S.A., priority 2015, dated 2018), this text covers IC50 for eight molecules.

pIC50: −log10 of the molar value.

One test deals with recombinant human AMCase (Homo sapiens (Human), UniProt Q9BZP6). Description: Human AMCase activity assay (fluorescent 4MU substrate). The note with it: citrate buffer pH 5.2, 37° C., 60 minutes; substrate 4-methylumbelliferyl B-D-N,N′-diacetylchitobioside hydrate; read-out: Activity on hAMCase, IC50. It counts as biochemical.
recombinant human AMCase, sequence (Q9BZP6 22-476): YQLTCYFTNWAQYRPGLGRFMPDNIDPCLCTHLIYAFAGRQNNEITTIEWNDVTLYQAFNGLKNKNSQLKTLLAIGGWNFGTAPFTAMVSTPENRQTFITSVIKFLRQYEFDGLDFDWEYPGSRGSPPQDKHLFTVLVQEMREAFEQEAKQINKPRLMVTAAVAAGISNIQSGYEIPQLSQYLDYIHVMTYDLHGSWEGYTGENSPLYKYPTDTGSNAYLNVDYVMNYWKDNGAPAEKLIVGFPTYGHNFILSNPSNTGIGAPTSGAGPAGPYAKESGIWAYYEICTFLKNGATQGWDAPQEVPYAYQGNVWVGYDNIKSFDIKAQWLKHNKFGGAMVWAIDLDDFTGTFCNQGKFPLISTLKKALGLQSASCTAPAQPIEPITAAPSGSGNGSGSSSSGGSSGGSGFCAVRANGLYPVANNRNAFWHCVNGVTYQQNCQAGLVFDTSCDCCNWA
The target in the next test is recombinant human CHIT1 (Homo sapiens (Human), UniProt Q13231). Nature of the test: Human CHIT1 activity assay (fluorescent 4MU substrate). It counts as biochemical. The note with it: citrate buffer pH 5.2, 37° C., 60 minutes; substrate 4-methylumbelliferyl β-D-N,N′,N″-triacetylchitotriose; read-out: Activity on hCHIT1, IC50.
recombinant human CHIT1, sequence (Q13231 22-466): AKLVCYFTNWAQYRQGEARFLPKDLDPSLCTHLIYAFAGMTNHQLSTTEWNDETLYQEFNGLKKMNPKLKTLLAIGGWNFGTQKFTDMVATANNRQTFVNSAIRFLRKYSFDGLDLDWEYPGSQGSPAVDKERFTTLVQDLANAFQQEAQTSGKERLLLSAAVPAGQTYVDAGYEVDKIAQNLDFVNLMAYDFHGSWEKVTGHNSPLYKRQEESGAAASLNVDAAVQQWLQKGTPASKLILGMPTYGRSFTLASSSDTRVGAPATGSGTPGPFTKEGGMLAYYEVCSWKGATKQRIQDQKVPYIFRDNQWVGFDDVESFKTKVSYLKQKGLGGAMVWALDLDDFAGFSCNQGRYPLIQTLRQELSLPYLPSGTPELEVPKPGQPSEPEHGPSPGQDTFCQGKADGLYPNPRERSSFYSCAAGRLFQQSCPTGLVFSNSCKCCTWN

In general, pIC50 refers to −log10 of the IC50, conventionally taken in molar units. With `C=C1COC[C@H](Cc2ccc(Cl)cc2)N(C2CCN(c3nnc(N)[nH]3)CC2)C1` [Example 55, (S)-5-(4-(3-(4-chlorobenzyl)-6-methylene-1,4-oxazepan-4-yl)piperidin-1-yl)-4H-1,2,4-triazol-3-amine], the figures for the pIC50 at recombinant human AMCase and at recombinant human CHIT1 were above 7.00 and 6.00 to 7.00, respectively.
The matching figures for `CN1C[C@H](Cc2ccc(Cl)cc2)N(C2CCN(c3nnc(N)[nH]3)CC2)Cc2ccccc21` [Example 57, (S)-5-(4-(3-(4-chlorobenzyl)-1-methyl-2,3-dihydro-1H-benzo[e][1,4]diazepin-4(5H)-yl)piperidin-1-yl)-4H-1,2,4-triazol-3-amine]: above 7.00 and 6.00 to 7.00.
The corresponding values for `CN1C[C@H](Cc2ccc(Cl)cc2)N(C2CCN(c3nnc(N)[nH]3)CC2)Cc2cc(Cl)ccc21` [Example 58, (S)-5-(4-(7-chloro-3-(4-chlorobenzyl)-1-methyl-2,3-dihydro-1H-benzo[e][1,4]diazepin-4(5H)-yl)piperidin-1-yl)-4H-1,2,4-triazol-3-amine] are above 7.00 and 6.00 to 7.00.
The corresponding values for `Nc1nnc(N2CCC(N3Cc4ccccc4OC[C@@H]3Cc3ccc(Cl)cc3)CC2)[nH]1` [Example 59, (S)-5-(4-(3-(4-chlorobenzyl)-2,3-dihydrobenzo[f][1,4]oxazepin-4(5H)-yl)piperidin-1-yl)-4H-1,2,4-triazol-3-amine] are above 7.00 and 6.00 to 7.00.
As to `Nc1nnc(N2CCC(N3Cc4cc(F)ccc4OC[C@@H]3Cc3ccc(Cl)cc3)CC2)[nH]1` [Example 60, (S)-5-(4-(3-(4-chlorobenzyl)-7-fluoro-2,3-dihydrobenzo[f][1,4]oxazepin-4(5H)-yl)piperidin-1-yl)-4H-1,2,4-triazol-3-amine], the pIC50 at recombinant human AMCase is above 7.00; on recombinant human CHIT1, 6.00 to 7.00.
Consider `Nc1nnc(N2CCC(N3Cc4cc(Cl)ccc4OC[C@@H]3Cc3ccc(Cl)cc3)CC2)[nH]1` [Example 61, (S)-5-(4-(7-chloro-3-(4-chlorobenzyl)-2,3-dihydrobenzo[f][1,4]oxazepin-4(5H)-yl)piperidin-1-yl)-4H-1,2,4-triazol-3-amine], for which the negative logarithm of the IC50 (pIC50) on recombinant human AMCase was above 7.00; on recombinant human CHIT1 it was 5.00 to 6.00.
For the molecule `Nc1nnc(N2CCC(N3Cc4cc(Cl)cc(Cl)c4OC[C@@H]3Cc3ccc(Cl)cc3)CC2)[nH]1` [Example 62, (S)-5-(4-(7,9-dichloro-3-(4-chlorobenzyl)-2,3-dihydrobenzo[f][1,4]oxazepin-4(5H)-yl)piperidin-1-yl)-4H-1,2,4-triazol-3-amine], the negative-log IC50 (pIC50) at recombinant human AMCase is above 7.00; on recombinant human CHIT1, 4.00 to 5.00.
The matching figures for `Nc1nnc(N2CCC(N3Cc4ccncc4OC[C@@H]3Cc3ccc(Cl)cc3)CC2)[nH]1` [Example 63, (S)-5-(4-(3-(4-chlorobenzyl)-2,3-dihydropyrido[4,3-f][1,4]oxazepin-4(5H)-yl)piperidin-1-yl)-4H-1,2,4-triazol-3-amine]: above 7.00 and 5.00 to 6.00.
